Usually IC50 stands for the midpoint of a concentration-inhibition curve. Low values mean greater potency in that assay, high ones weaker potency in that assay.

Test [1] deals with phosphodiesterase fraction III. The test can be described thus: Inhibition of phosphodiesterase fraction III activity. In kind it is biochemical. As to conditions: cyclic AMP substrate 0.01-1.0 micromolar, pH 7.4, fraction III enzyme from canine heart.
In test [2] the test system is renal vasculature. The test can be described thus: Renal vasodilating activity in anesthetized dogs. In kind it is in vivo, adult mongrel dogs. The conditions noted are these: Canis lupus familiaris. Here is the method: The following procedure is a variation of the assay described in that report.
Adult mongrel dogs were anesthetized and surgically prepared for electromagnetic measurement of renal artery blood flow. A carotid artery was cannulated for measuring arterial blood pressure and drugs were administered intravenously or intraarterially (via the renal artery). Heart rate was monitored with a cardiotachometer. Renal vascular resistance was calcualted as the ratio of mean arterial blood pressure to renal artery blood flow. Dopamine was infused intravenously at 3 μg/kg/min for ten minutes (at an infusion rate of about 1 ml/min) to determine responsiveness of each dog to renal dopamine receptor stimulation. Cumulative dose-response data were obtained by infusing a compound of this invention at progressively increasing (usually three-fold) infusion rates, each dose being infused for five minutes. The maximum percent change from pre-drug control in renal artery blood flow (or in renal vascular resistance) was determined for each infusion dose.

Test [3] has as its system cardiac muscle. Nature of the test: Acute in vivo cardiotonic activity in anesthetized dogs. On the set-up: species or system adult mongrel dogs. As to conditions: anesthetized dog, relative to control. The protocol: The acute in vivo cardiotonic activity of compounds prepared according to the present invention was determined according to a modification of the procedure described by Alousi et al., Circ. Res., 45, 666 (1979).
In particular, adult mongrel dogs were anesthetized with sodium pentobarbital and were artificially respired. Arterial pressure was monitored via a femoral artery, and the pulse pressure was used to trigger a cardiotachometer for heart rate. Left ventricular pressure was determined with a Millar catheter, and dP/dT (the change in ventricular pressure with time) was derived. Cardiac output was determined by measuring ascending aortic blood flow with an electromagnetic flow probe, and myocardial contractile foorce was measured with a Walton Brodie strain gauge sutured to the right ventricle. Lead II EKG was also recorded.
A standard dose (10 μg/kg/min) of dopamine was administered to assess myocardial responsiveness.
Compounds of the invention were administered by intravenous infusion and the effects on cardiovascular parameters were determined.
Dose related effects of the test compound on heart rate (HR), maximum change in left ventricular pressure with time (dP/dT), percent change in cardiac force (CF) and the change in mean arterial blood pressure (MABP) were compared to pretreatment control values and expressed as a percent change.

Where [4] appears, read: iv, read-out: RVR, percent change in renal vascular resistance.
Setting [5] is: anesthetized dog, dose 6.2 mpk iv, relative to control, read-out: HR, percent change in heart rate.
[6] abbreviates: anesthetized dog, dose 6.2 mpk iv, relative to control, read-out: MABP, percent change in mean arterial blood pressure.
Where [7] appears, read: anesthetized dog, dose 6.2 mpk iv, relative to control, read-out: RBF, percent change in renal blood flow.
Where [8] appears, read: anesthetized dog, dose 1.2 mpk iv, relative to control, read-out: HR, percent change in heart rate.
Where [9] appears, read: anesthetized dog, dose 1.2 mpk iv, relative to control, read-out: MABP, percent change in mean arterial blood pressure.
[10] abbreviates: anesthetized dog, dose 1.2 mpk iv, relative to control, read-out: RBF, percent change in renal blood flow.
The mark [11] stands for this setting: anesthetized dog, dose 1.2 mpk iv, relative to control, read-out: RVR, percent change in renal vascular resistance.
The mark [12] stands for this setting: total dose 1.938 mpk iv infusion.
Where [13] appears, read: total dose 1.875 mpk iv infusion.
[14] abbreviates: iv, read-out: HR, percent change in heart rate.

Like-named read-outs stand apart in the source and are kept apart here.

With `CCN(CCN(C)C)c1nc(C)c2cc(OC)c(OC)cc2c1[N+](=O)[O-]` [Cmpd 16], in test [1], the IC50 was 300 µM.
As for `COc1cc2c(C)nc(Nc3ccccc3)c([N+](=O)[O-])c2cc1OC` [Cmpd 12], the change in vivo at 6.2 mg/kg in test [2] (setting [4]) is -32%; in test [2] (setting [5]), 2%; in test [2] (setting [6]) it was -3%; in test [2] (setting [7]) it was 42%. In test [1], this compound came in with an IC50 of 250 µM.
Turning to `COc1cc2c(C)nc(N(C)C)c([N+](=O)[O-])c2cc1OC` [Cmpd 13, 6,7-Dimethoxy-1-methyl-3-(N,N-dimethyl)amino-4-nitroisoquinoline], the change in vivo at 1.2 mg/kg in test [2] (setting [8]) was 17%; in test [2] (setting [9]) it was 16%; in test [2] (setting [10]), 60%; in test [2] (setting [11]), -23%. In addition, half-maximal inhibition in test [1] (IC50) required 10 µM.
As for `C=CCNC(=O)Nc1c(N(C)C)nc(C)c2cc(OC)c(OC)cc12` [Cmpd 30], the change in vivo at 1.2 mg/kg was -9% in test [2] (setting [4]), 3% in test [2] (setting [8]), 1% in test [2] (setting [9]) and 12% in test [2] (setting [10]). The compound also registered an IC50 in test [1] of 280 µM.
For `CCCCSc1nc(C)c2cc(OC)c(OC)cc2c1[N+](=O)[O-]` [Cmpd 23, 3-(n-Butylthio)-6,7-dimethoxy-1-methyl-4-nitroisoquinoline], the change in vivo at 6.2 mg/kg was -1% in test [2] (iv, read-out: MABP, percent change in mean arterial blood pressure); -15% in test [2] (setting [4]); 4% in test [2] (setting [5]); 16% in test [2] (setting [7]). In test [1], the IC50 is 280 µM.
In test [1], `COc1cc2c(C)nc(N(C)c3ccccc3)c([N+](=O)[O-])c2cc1OC` [Cmpd 21] showed an IC50 of 220 µM.
In the case of `CNc1nc(C)c2cc(OC)c(OC)cc2c1[N+](=O)[O-]` [Cmpd 2], in test [1], the IC50 came to 265 µM. The IC50 values of the last two compounds are within 1.5-fold of each other.
In the case of `CCN(C)c1nc(C)c2cc(OC)c(OC)cc2c1[N+](=O)[O-]` [Cmpd 14], in test [1], the IC50 came out at 25 µM. In addition, in test [3] (setting [12]), the “CF, percent change in cardiac force” value is on record as 21 percent change; the “HR, percent change in heart rate” value stood at 8 percent change; the “MABP, percent change in mean arterial blood pressure” value (“MABP, percent change” for short) is recorded as 6 percent change; the “dP/dt, maximum percent change in left ventricular pressure with time” value (“dP/dt, maximum percent change” for short) is reported as 20 percent change.
In test [1], `COc1cc2c(C)nc(N(C)C)c(N)c2cc1OC` [Cmpd 26, 4-Amino-6,7-dimethoxy-3-(N,N-dimethyl)amino-1-methylisoquinoline] showed an IC50 of 14 µM.
`CCCCNC(=O)Nc1c(N(C)C)nc(C)c2cc(OC)c(OC)cc12` [Cmpd 28]: in test [1], it took 300 µM to reach half-maximal inhibition (IC50). For the same compound, in test [3] (setting [13]), the “CF, percent change in cardiac force” value came out at 20 percent change; the “HR, percent change in heart rate” value was found to be 2 percent change; the “MABP, percent change” value is listed as 2 percent change; the “dP/dt, maximum percent change” value was 16 percent change.
With `CCCCNC(=O)Nc1c(Nc2ccccc2)nc(C)c2cc(OC)c(OC)cc12` [Cmpd 27], the change in vivo at 1.2 mg/kg was -6% in test [2] (setting [14]), 8% in test [2] (setting [9]), 7% in test [2] (setting [10]) and 1% in test [2] (setting [11]).
The compound `COc1cc2c(C)nc(Nc3ccccc3)c(N)c2cc1OC` [Cmpd 25, 4-amino-6,7-dimethoxy-1-methyl-3-[(N-phenyl)amino]isoquinoline] yielded an IC50 in test [1] of 68 µM.
On to `CCN(CC)c1nc(C)c2cc(OC)c(OC)cc2c1[N+](=O)[O-]` [Cmpd 15], for which the change in vivo at 6.2 mg/kg in test [2] (setting [5]) was 4%; in test [2] (setting [6]), 0%; in test [2] (setting [7]), 8%; in test [2] (anesthetized dog, dose 6.2 mpk iv, relative to control, read-out: RVR, percent change in renal vascular resistance) it was -8%.
`CCCCNc1nc(C)c2cc(OC)c(OC)cc2c1[N+](=O)[O-]` [Cmpd 3, 3-(n-Butylamino)-6,7-dimethoxy-1-methyl-4-nitroisoquinoline] came in with an IC50 in test [1] of 250 µM.
With `COc1cc2c(C)nc(N3CCN(c4ccccc4)CC3)c([N+](=O)[O-])c2cc1OC` [Cmpd 19], the change in vivo at 6.2 mg/kg was -18% in test [2] (setting [4]), -5% in test [2] (setting [5]), 6% in test [2] (setting [6]) and 30% in test [2] (setting [7]). In addition, the IC50 in test [1] came out at 150 µM.
With `COc1cc2c(C)nc(NCCN3CCN(c4ccccc4OC)CC3)c([N+](=O)[O-])c2cc1OC` [Cmpd 8], the change in vivo at 0.3 mg/kg in test [2] (setting [14]) was -6%; in test [2] (anesthetized dog, dose 0.3 mpk iv, relative to control, read-out: MABP, percent change in mean arterial blood pressure), -20%; in test [2] (anesthetized dog, dose 0.3 mpk iv, relative to control, read-out: RBF, percent change in renal blood flow), 10%; in test [2] (anesthetized dog, dose 0.3 mpk iv, relative to control, read-out: RVR, percent change in renal vascular resistance), -27%.
On to `COc1cc2c(C)nc(NC3CCN(Cc4ccccc4)CC3)c([N+](=O)[O-])c2cc1OC` [Cmpd 11], for which the change in vivo at 6.2 mg/kg in test [2] (setting [4]) was -28%; in test [2] (setting [5]) it was -16%; in test [2] (setting [6]) it was -13%; in test [2] (setting [7]) it was 28%. The IC50 in test [1] came to 120 µM.
For the compound `CCN(CC)CCNc1nc(C)c2cc(OC)c(OC)cc2c1[N+](=O)[O-]` [Cmpd 6], in test [3] (setting [13]), the “CF, percent change in cardiac force” value was 40 percent change; the “HR, percent change in heart rate” value is -6 percent change; the “MABP, percent change” value came out at 4 percent change; the “dP/dt, maximum percent change” value turned out to be 52 percent change.
Turning to `COc1cc2c(C)nc(NCc3ccccc3)c([N+](=O)[O-])c2cc1OC` [Cmpd 4], the change in vivo at 6.2 mg/kg was -14% in test [2] (setting [4]), -15% in test [2] (setting [5]), -6% in test [2] (setting [6]) and 9% in test [2] (setting [7]).

The record behind these values is patent US4843077A, “Isoquinoline derivatives having renal vasodilating properties and/or cardiotonic properties and/or phosphodiesterase inhibiting properties” (Ortho Pharmaceutical Corporation, priority 1987, dated 1989).
